# Source: ChEMBL document CHEMBL5584249, “Machine learning-based QSAR and LB-PaCS-MD guided design of SARS-CoV-2 main protease inhibitors” (Bioorg Med Chem Lett, 2024)
# Molecular target: Replicase polyprotein 1ab (Severe acute respiratory syndrome coronavirus 2, UniProt P0DTD1)
# Test: Inhibition of recombinant SARS CoV-2 main protease by FRET assay
# Settings: not given
row,Structure (SMILES),pIC50
1,Cc1ccc(-n2[se]c3ccccc3c2=O)cc1,5.64
2,COc1ccc(-n2[se]c3ccccc3c2=O)cc1,5.903
3,O=c1c2ccccc2[se]n1-c1ccc(F)cc1,5.556
4,O=c1c2ccccc2[se]n1-c1cc(Cl)cc(Cl)c1,6.194
5,N#Cc1cccc(-n2[se]c3ccccc3c2=O)c1,6.42
6,O=c1c2ccccc2[se]n1-c1c(F)cccc1F,5.68
7,O=c1c2ccccc2[se]n1Cc1ccc(F)cc1,6
8,CCc1ccc(-n2[se]c3ccccc3c2=O)cc1,5.209
9,COc1ccc(F)cc1-n1[se]c2ccccc2c1=O,5.481
10,COc1cc(F)ccc1-n1[se]c2ccccc2c1=O,5.745
11,O=c1c2ccccc2[se]n1-c1ccc(Br)cc1,5.556
12,O=c1c2ccccc2[se]n1-c1cccc(Cl)c1,6.167
13,O=c1c2ccccc2[se]n1-c1cccc(C(F)(F)F)c1,5.558
14,COc1ccc(Cn2[se]c3ccccc3c2=O)c(OC)c1,6.215
15,Cc1ccccc1-n1[se]c2ccccc2c1=O,5.129

# Same assay, conditions: read-out: IC50
row,Structure (SMILES),IC50
1,O=c1c2ccccc2[se]n1-c1ccc(C(F)(F)F)cc1,0.9 µM
2,COc1ccc2[se]n(-c3ccccc3)c(=O)c2c1,6.4 µM
3,CCCCCCCc1ccc(-n2[se]c3ccccc3c2=O)cc1,5.56 µM
4,CCCCCCCCc1ccc(-n2[se]c3ccccc3c2=O)cc1,2.69 µM

# Same assay, conditions: read-out: pIC50 (converted)
row,Structure (SMILES),IC50
1,O=c1c2ccccc2[se]n1-c1ccc(C(F)(F)F)cc1,0.883 µM
2,COc1ccc2[se]n(-c3ccccc3)c(=O)c2c1,6.18 µM
